Source: patent US7652047B2, “Phenylamino isothiazole carboxamidines as MEK inhibitors” (Ardea Biosciences, Inc., priority 2005, dated 2010)

target: T1, MEK1^CA (human GST-MEK1, constitutively active, Ser218Asp and Ser222Asp) (Homo sapiens, UniProt Q02750, S218D/S222D); experiment: MEK1 enzymatic activity assay (MEK1^CA / ERK2 / MBP, [γ-33P]ATP incorporation); type: biochemical; conditions: Table 1, compounds of formula I; read-out: Avg IC50
T1 construct: GST; made in house; host or cells: Escherichia coli
T1 sequence (Q02750 whole entry S218D/S222D): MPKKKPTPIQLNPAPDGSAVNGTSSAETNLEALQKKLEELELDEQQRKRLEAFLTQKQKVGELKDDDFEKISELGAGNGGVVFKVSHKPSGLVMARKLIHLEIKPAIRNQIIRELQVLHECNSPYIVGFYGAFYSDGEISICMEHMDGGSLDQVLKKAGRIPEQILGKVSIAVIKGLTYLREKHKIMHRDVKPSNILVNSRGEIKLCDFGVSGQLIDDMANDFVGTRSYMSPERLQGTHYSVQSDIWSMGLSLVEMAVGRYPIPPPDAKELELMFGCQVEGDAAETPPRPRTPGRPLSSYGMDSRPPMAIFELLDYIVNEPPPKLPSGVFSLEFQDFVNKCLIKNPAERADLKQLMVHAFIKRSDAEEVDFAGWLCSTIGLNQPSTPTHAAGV
Procedure, shortened: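 Cascade assay: 25 µl reactions with 0.002 nmol E. coli-expressed GST-MEK1 S218D/S222D, 0.02 nmol His-tagged mouse ERK2, 0.25 nmol MBP, 0.25 nmol unlabeled ATP and 0.1 µCi [γ-33P]ATP. Compound preincubated 30 min at ambient temperature with MEK1/ERK2; stopped with TCA, 33P-labelled protein filter-captured and scintillation-counted.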

First: CC(C)N(O)C(=N)c1c(O)nsc1Nc1ccc(Oc2cc(F)cc(F)c2)cc1 [compound 421]
Second: N=C(NCCO)c1c(O)nsc1Nc1ccc(Oc2cc(F)cc(F)c2)cc1 [compound 411]
The IC50 of the first is lower: 1 to 100 nM for the first, 100 to 500 nM for the second. The first is the more potent here.

`CC(C)NC(=N)c1c(O)nsc1Nc1ccc(Oc2ccccc2F)cc1` [compound 356] and `CC(C)NC(=N)c1c(O)nsc1Nc1ccc(Oc2ccc(F)cc2F)cc1` [compound 357] fall in the same range of IC50: 1 to 100 nM for the first, 1 to 100 nM for the second.

First: N=C(NCC(O)CO)c1c(O)nsc1Nc1ccc(Br)cc1 (stereo not shown) [compound 55]
Second: CC(=O)Nc1ccc(Oc2ccc(Nc3snc(O)c3C(=N)NCC(O)CO)cc2)cc1 (stereo not shown) [compound 145]
The IC50 of the first is lower: 100 to 500 nM for the first, > 500 nM for the second.

Compared with `CC(C)NC(=N)c1c(O)nsc1Nc1ccc(Oc2cc(Cl)cc(Cl)c2)cc1` [compound 248], `CC(C)NC(=N)c1c(O)nsc1Nc1ccc(Oc2c(F)ccc(F)c2Cl)cc1` [compound 318] is higher in IC50: 1 to 100 nM for the first, 100 to 500 nM for the second.

Compared with `N=C(NCC1CCCCC1)c1c(O)nsc1Nc1ccc(OCc2ccccc2)cc1` [compound 61], `N=C(NCC1CCCCC1)c1c(O)nsc1Nc1ccc(Oc2ccccc2)cc1` [compound 37] is lower in IC50: 100 to 500 nM for the first, 1 to 100 nM for the second. The second is the more potent here.

First: Cc1cc(Nc2snc(O)c2C(=N)NC(C)CO)ccc1Oc1ccccc1 (stereo not shown) [compound 324]
Second: CC(CO)NC(=N)c1c(O)nsc1Nc1ccc(Oc2ccccc2)nc1 (stereo not shown) [compound 258]
The IC50 of the first is lower: 100 to 500 nM for the first, > 500 nM for the second. The first is the more potent here.

First: CC(C)NC(=N)c1c(O)nsc1Nc1ccc(Oc2ccccc2)c(F)c1 [compound 307]
Second: CC(C)NC(=N)c1c(O)nsc1Nc1ccc(Oc2cccc(F)c2)c(F)c1 [compound 363]
The IC50 of the first is lower: 1 to 100 nM for the first, > 500 nM for the second. The first is the more potent here.

`Cc1cccc(Nc2snc(O)c2C(=N)NCC2CCCCC2)c1` [compound 81] and `CC(C)Nc1snc(O)c1C(=N)NCC1CCCCC1` [compound 117] cannot be ordered by IC50: > 500 nM for the first, > 500 nM for the second.

`CC(C)NC(=N)c1c(O)nsc1Nc1ccc(Oc2ccc(O)cc2)cc1` [compound 298] and `CC(C)NC(=N)c1c(O)nsc1Nc1ccc(Oc2ccc(F)cc2)cc1` [compound 205] fall in the same range of IC50: 100 to 500 nM for the first, 100 to 500 nM for the second.

First: CC(C)NC(=N)c1c(O)nsc1Nc1ccc2c(c1)Cc1ccccc1-2 [compound 227]
Second: CC(C)NC(=N)c1c(O)nsc1Nc1ccc(Oc2ccc(F)cc2)c(Br)c1 [compound 242]
The IC50 of the first is higher: > 500 nM for the first, 100 to 500 nM for the second. The second is the more potent here.

`N=C(NCC1CC1)c1c(O)nsc1Nc1ccc(Oc2ccccc2)cc1` [Cpd 19] and `CC1(C)OCC(CNC(=N)c2c(O)nsc2Nc2ccc(Oc3ccccc3)cc2)O1` (stereo not shown) [compound 47] fall in the same range of IC50: 1 to 100 nM for the first, 1 to 100 nM for the second.

First: CC(CO)NC(=N)c1c(O)nsc1Nc1ccc(Oc2ccc(F)cc2)cc1 (stereo not shown) [compound 206]
Second: CC[C@@H](CO)NC(=N)c1c(O)nsc1Nc1ccc(Oc2ccccc2)cc1 [compound 176]
The IC50 of the first is higher: > 500 nM for the first, 100 to 500 nM for the second.

Compared with `Cn1sc(Nc2ccc(Oc3ccccc3)cc2)c(C(=N)NC2CCCC2)c1=O` [Cpd 24], `N=C(N[C@@H]1CCCC[C@H]1O)c1c(O)nsc1Nc1ccc(Oc2ccccc2)cc1` [compound 167] is lower in IC50: > 500 nM for the first, 100 to 500 nM for the second. The second is the more potent here.

First: CC(C)NC(=N)c1c(O)nsc1Nc1ccc(Oc2cc(C(F)(F)F)ccc2Cl)cc1F [compound 384]
Second: CC(C)NC(=N)c1c(O)nsc1Nc1ccc(Oc2cc(Cl)ccc2Cl)c(F)c1 [compound 367]
The IC50 of the first is higher: 100 to 500 nM for the first, 1 to 100 nM for the second. The second is the more potent here.

First: Cc1cc(Oc2cc(F)cc(F)c2)ccc1Nc1snc(O)c1C(=N)NO [compound 465]
Second: Cc1cc(Oc2cc(F)cc(F)c2)ccc1Nc1snc(O)c1C(=N)NC(C)C [compound 457]
The IC50 of the first is higher: 100 to 500 nM for the first, 1 to 100 nM for the second.

First: Cc1cc(Oc2cccc(C(F)(F)F)c2)ccc1Nc1snc(O)c1C(=N)NO [compound 471]
Second: Cc1cc(Oc2cccc(C(F)(F)F)c2)ccc1Nc1snc(O)c1C(=N)NC(CO)C(C)C (stereo not shown) [compound 492]
The IC50 of the first is higher: > 500 nM for the first, 100 to 500 nM for the second.

First: N=C(N[C@H](CO)CC1CCCCC1)c1c(O)nsc1Nc1ccc(Oc2ccccc2)cc1 [compound 168]
Second: N=C(NC1(CO)CCCC1)c1c(O)nsc1Nc1ccc(Oc2ccccc2)cc1 [compound 190]
The IC50 of the first is higher: > 500 nM for the first, 100 to 500 nM for the second. The second is the more potent here.

First: N=C(NCC1CCCCC1)c1c(O)nsc1Nc1ccc(Oc2ccccc2)nc1 [compound 103]
Second: COc1cc2c(cc1Nc1snc(O)c1C(=N)NCC1CCCCC1)oc1ccccc12 [compound 131]
The IC50 of the first is lower: 100 to 500 nM for the first, > 500 nM for the second. The first is the more potent here.

First: N=C(NCc1ccccc1)c1c(O)nsc1Nc1ccc(Oc2cc(F)cc(F)c2)cc1 [compound 424]
Second: CN(C)CCNC(=N)c1c(O)nsc1Nc1ccc(Oc2ccccc2)cc1 [compound 147]
The IC50 of the first is lower: 1 to 100 nM for the first, 100 to 500 nM for the second. The first is the more potent here.

`CC(C)NC(=N)c1c(O)nsc1Nc1ccc(Oc2cc(C(F)(F)F)cc(C(F)(F)F)c2)cc1` [compound 331] and `Cc1cc(Oc2ccccc2)ccc1Nc1snc(O)c1C(=N)NC(C)C` [compound 334] fall in the same range of IC50: 1 to 100 nM for the first, 1 to 100 nM for the second.

First: CC(C)NC(=N)c1c(O)nsc1Nc1ccc(Oc2ccc(Cl)cc2Cl)c(F)c1 [compound 320]
Second: Cc1cc(Oc2ccc(F)cc2Cl)ccc1Nc1snc(O)c1C(=N)N(O)C(C)C [compound 462]
The IC50 of the first is lower: 1 to 100 nM for the first, 100 to 500 nM for the second. The first is the more potent here.

Compared with `CCCCCCCCCCOCC(O)CNC(=N)c1c(O)nsc1Nc1ccc(Oc2ccccc2)cc1` (stereo not shown) [compound 187], `N=C(NCCCCCCO)c1c(O)nsc1Nc1ccc(Oc2ccccc2)cc1` [compound 32] is lower in IC50: > 500 nM for the first, 1 to 100 nM for the second. The second is the more potent here.

Compared with `Cc1ccc(Nc2sncc2C(=N)NC2CCCC2)cc1` [compound 56], `Cc1ccc(Nc2snc(O)c2C(=N)NN2CCCCC2)cc1` [Cpd 7] is lower in IC50: > 500 nM for the first, 100 to 500 nM for the second.

`COCC(C)NC(=N)c1c(O)nsc1Nc1ccc(Oc2cc(F)cc(F)c2)cc1C` (stereo not shown) [compound 467] and `COCCNC(=N)c1c(O)nsc1Nc1ccc(Oc2cccc(F)c2F)cc1C` [compound 505] fall in the same range of IC50: 1 to 100 nM for the first, 1 to 100 nM for the second.

First: CC(C)c1ccc(Nc2snc(O)c2C(N)=NCC(O)CO)cc1 (stereo not shown) [compound 70]
Second: CC(O)CNC(=N)c1c(O)nsc1Nc1ccc(-c2nc3ccccc3[nH]2)cc1 (stereo not shown) [compound 510]
The IC50 of the first is lower: 100 to 500 nM for the first, > 500 nM for the second. The first is the more potent here.

Compared with `CC(CO)NC(=N)c1c(O)nsc1Nc1ccc(Oc2cccc(F)c2F)nc1` (stereo not shown) [compound 432], `Cc1cc(Oc2cccc(F)c2F)ccc1Nc1snc(O)c1C(=N)NO` [compound 500] is lower in IC50: 100 to 500 nM for the first, 1 to 100 nM for the second.

First: N=C(NCCCCO)c1c(O)nsc1Nc1ccc(Oc2ccccc2)cc1 [Cpd 9]
Second: N=C(NCCO)c1c(O)nsc1Nc1ccc(-c2nc3ccccc3[nH]2)cc1 [compound 511]
The IC50 of the first is lower: 1 to 100 nM for the first, > 500 nM for the second. The first is the more potent here.

Compared with `N=C(c1c(O)nsc1Nc1ccc(Oc2ccc(Cl)cc2Cl)cc1)N1CCCCC1` [compound 427], `CC(=O)Oc1nsc(Nc2ccc(Oc3ccccc3)cc2)c1C(=N)NC(C)C` [compound 185] is lower in IC50: > 500 nM for the first, 100 to 500 nM for the second.

With `COC(=O)c1cccc(Nc2snc(O)c2C(=N)NC(C)C)c1C` [compound 479] the IC50 was > 500 nM.

same assay, conditions: Table 2, Ar1-A contains an amido or indolo group; read-out: IC 50

`CC(CO)NC(=N)c1c(O)nsc1Nc1ccc(C(=O)Nc2ccccc2)cc1` (stereo not shown) [E-5] and `N=C(NCC1CCCCC1)c1c(O)nsc1Nc1ccc(C(=O)Nc2ccccc2)cc1` [E-4] cannot be ordered by IC50: > 1000 nM for the first, > 1000 nM for the second.

First: N=C(NCC(O)CO)c1c(O)nsc1Nc1ccc(C(=O)N2CCc3ccccc32)cc1 (stereo not shown) [E-12]
Second: CC(C)NC(=N)c1c(O)nsc1Nc1ccc(C(=O)N2CCN(C)CC2)cc1 [E-19]
The IC50 of the first is lower: 200 to 1000 nM for the first, > 1000 nM for the second.

In the case of `N/C(=N\CC1CCCCC1)c1c(O)nsc1Nc1ccccc1C(=O)NCC1CCCCC1` [E-1], the IC50 is reported as > 1000 nM.

same assay, conditions: Table 3, benzamides of formula X; read-out: IC 50

In the case of `N=C(NCC1CCCCC1)c1c(O)nsc1Nc1ccc(C(=O)Nc2ccccc2)cc1` [drawing 811], the IC50 is reported as > 500 nM.

same assay, conditions: Table 4, R' is (CH2)1 or 2-G; read-out: IC50

`N=C(NCC1CCCCC1)c1c(O)nsc1Nc1ccc(Oc2ccccc2)nc1` [drawing 828] was tested, and the IC50 was 100 to 500 nM.
